From PMC7822874, “Chemoprotective antimalarials identified through quantitative high-throughput screening of Plasmodium blood and liver stage parasites” (Scientific Reports, 2021)

Experiment: in vitro
Details: human, hepg2-a16-cd81egfp cells
Note: reference of the scale not given here.

| SMILES | viability at 3 µM [%] |
| --- | --- |
| C=C1C(=O)O[C@@H]2C[C@@H](C)[C@@H]3C=CC(=O)[C@@]3(C)[C@@H](OC(=O)CC(=O)O[C@H]3[C@@H]4C(=C)C(=O)O[C@@H]4C[C@@H](C)[C@@H]4C=CC(=O)[C@]43C)[C@H]12 [MLS000728515] | 16.4 |
| C[n+]1c2ccccc2nc2ccc(NCCO)cc21.[O-][Cl+3]([O-])([O-])[O-] [MLS001164888] | 97.2 |

Same assay, conditions: human, hepg2-a16-cd81egfp cells, % viability

| SMILES | viability at 3 µM [%] |
| --- | --- |
| CCCC(=O)NC(c1ccc(OC)cc1)c1ccc2cccnc2c1O (stereo not shown) [MLS000715379] | 59.7 |
| CCN(CC)CCN1C(=O)c2ccccc2NC1c1ccc(Br)cc1 (stereo not shown) [MLS000723891] | 87.8 |
| CCOC(=O)c1nnn(-c2nonc2N)c1-c1ccc(Br)cc1 [MLS000727795] | 96.5 |
| Cc1ccc(-c2cc(C(F)(F)F)n3ncc(C(=O)N4CCCCC4c4cccnc4)c3n2)cc1 (stereo not shown) [MLS000729132] | 89.9 |
| COc1ccc2c(c1)C=C([C@@H]1C[C@H]3CN(c4ccccc4)C(=O)[C@]34CCCN14)CO2 [MLS000734809] | 95.7 |
| O=C(Nc1ccc(C2=NCCN2)cc1)c1ccc(C(=O)Nc2ccc(C3=NCCN3)cc2)c(Cl)c1 [MLS000737368] | 90 |
| Cc1ccc(Cl)cc1NC(=O)c1cc2ccccc2cc1O [MLS000738149] | 74 |
| CC1(C)N=C(N)N=C(N)N1c1ccc(OCCCOc2ccccc2)c(Cl)c1 [MLS000738223] | 34.6 |
| COc1ccc2ccc(O)c(CN3CC=C(c4ccccc4)CC3)c2c1 [MLS000760157] | 97.2 |
| CCCC(=O)Nc1sc2c(c1C(=O)Nc1ccccn1)CCCC2 [MLS000765104] | 97.6 |
| CCC1(OC(=O)CN)C(=O)OCc2c1cc1n(c2=O)Cc2cc3ccccc3nc2-1 (stereo not shown) [MLS000766263] | 29.3 |
| COc1ccc(OC)c(-n2c(S)nnc2-c2ccc(O)cc2O)c1 [MLS000766628] | 104 |
| CC(C)Nc1ccc(Nc2ccnc3cc4ccccc4cc23)cc1 [MLS000766754] | 83.9 |
| COc1ccc(Nc2cc(C)nc(NCc3ccccc3)n2)cc1 [MLS000768693] | 83 |
| CCN(CC)CCOC(=O)c1ccc(N/C=C(/C#N)c2nc(-c3ccc4c(c3)OCO4)cs2)cc1 [MLS000769346] | 100 |
| O=C(Nc1nc(-c2ccccn2)cs1)c1cccc(-n2cnnn2)c1 [MLS000770597] | 63.7 |
| Oc1c(C(Nc2nccs2)c2ccc(C(F)(F)F)cc2)ccc2cccnc12 (stereo not shown) [MLS000774842] | 43.8 |
| O=C(Nc1ccc(S(=O)(=O)N2CCOCC2)cc1)c1cc(-c2cc(Cl)ccc2O)n[nH]1 [MLS000778989] | 73.1 |
| COc1ccc(Cl)cc1NC(=O)c1cc(-c2cc(C)ccc2O)[nH]n1 [MLS000779126] | 108 |
| CCC(=O)Nc1cc(=O)[nH]c2nc(-c3ccc(Cl)cc3)nn12 [MLS000779210] | 92 |
| Cc1ccc(-c2cc(C(=O)Nc3ccc(S(=O)(=O)N4CC(C)OC(C)C4)cc3)[nH]n2)c(O)c1 (stereo not shown) [MLS000779230] | 89.2 |
| Cc1ccc(-[n+]2c(-c3ccc(Cl)cc3)cn3c2CCC3)cc1 [MLS000780005] | 90.4 |
| O=C(Nc1ccc(C(F)(F)F)cc1)N1CCN(c2ccnc3cc(Cl)ccc23)CC1 [MLS000830170] | 90.8 |
| CCOC(=O)C1CCN(C(=O)c2cc(C(C)(C)C)nn2Cc2ccccc2)CC1 [MLS000860456] | 90.8 |
| O=C(Nc1ccc(N2CCN(c3ncccc3C(F)(F)F)CC2)nc1)c1cccs1 [MLS000862045] | 92 |
| Oc1cc(/C=C/c2c(F)cccc2Cl)nc2ccccc12 [MLS000862522] | 102 |

| SMILES | viability at 3 µM [%] |
| --- | --- |
| COc1cc(O)c(C(CCN2CCCCC2)c2ccc(N(C)C)cc2)c(OC)c1 (stereo not shown) [MLS000879496] | 92.4 |
| COc1cc(O)c(C(CCN2CCCC(C)C2)c2ccc3c(c2)OCO3)c(OC)c1 (stereo not shown) [MLS000879506] | 97.8 |
| CCN1CCN(Cc2ccc(NC(=O)c3ccc(C)c(NC(=O)c4cc(-c5ccc(Br)cc5)[nH]n4)c3)cc2C(F)(F)F)CC1 [MLS000911560] | 99 |
| CCN1CCN(Cc2ccc(NC(=O)c3cc(NC(=O)c4cc(-c5ccc(OC)cc5)n[nH]4)cc(OC)c3)cc2C(F)(F)F)CC1 [MLS000911571] | 97 |
| CCN1CCN(Cc2ccc(NC(=O)c3cc(NC(=O)c4cc5cccc(OC)c5o4)cc(OC)c3)cc2C(F)(F)F)CC1 [MLS000911573] | 94.8 |
| CCN1CCN(Cc2ccc(NC(=O)c3cc(NC(=O)c4cncc(-c5ccc(C#N)cc5)c4)cc(OC)c3)cc2C(F)(F)F)CC1 [MLS000911575] | 99.9 |
| COc1ccccc1-c1cc(C(=O)N2CCN(S(=O)(=O)c3ccc(C)cc3)CC2)[nH]n1 [MLS000924750] | 96.6 |
| COc1ccc(-n2nc(C(=O)NCC(=O)N3CCN(c4ccccc4OC)CC3)c3ccccc3c2=O)c(OC)c1 [MLS000936211] | 90.4 |
| CCC(=O)N1CCc2cc(Br)cc(S(=O)(=O)N3CCCCC3CC)c21 (stereo not shown) [MLS000936752] | 90.3 |
| COc1cc(NC(=O)c2cc([N+](=O)[O-])ccc2NC(=O)CNC2CCCCC2)cc(OC)c1 [MLS000950380] | 109 |
| COc1cc(NC(=O)c2cc([N+](=O)[O-])ccc2NC(=O)CNC2CCCCC2C)cc(OC)c1 (stereo not shown) [MLS000950459] | 90.2 |
| Cc1ccc(S(=O)(=O)N2CCN(/C(S)=N/Cc3ccc4c(c3)OCO4)CC2)cc1 [MLS001002637] | 97.3 |
| COc1cc(C(=O)OCC(=O)N2CCCCC2C)cc(NC(=O)c2cccs2)c1OC (stereo not shown) [MLS001003405] | 97.3 |
| CCOc1ccc(C(C)NC(S)=NC2CCCCC2)cc1OCC (stereo not shown) [MLS001007596] | 95.1 |
| CC(C)CCN(CCC(C)C)CC(O)Cn1c2ccccc2c(=O)c2ccccc21 (stereo not shown) [MLS001030199] | 88.6 |
| CCCC(C)C(=O)Nc1ncc(S(=O)(=O)c2ccc([N+](=O)[O-])cc2)s1 (stereo not shown) [MLS001034555] | 94 |
| O=C(CSc1nc(Nc2ccccc2)nc(N2CCOCC2)n1)Nc1cc(Cl)ccc1O [MLS001035450] | 85.3 |
| O=C1c2ccccc2-n2c1nc1ccccc1c2=O [MLS001049121] | 81.6 |
| CNc1ccc2oc(C[C@H]3O[C@@]4(CC[C@H]3C)O[C@H]([C@H](C)C(=O)c3ccc[nH]3)[C@H](C)C[C@H]4C)nc2c1C(=O)O [MLS001056783] | 19.2 |
| COc1ccc(-n2nc3c(c2NC(=O)CCl)CSC3)cc1 [MLS001066697] | 98.9 |
| COc1cccc(NC(=O)CN(C)C(=O)c2ccc(-c3cccc(C(F)(F)F)c3)o2)c1 [MLS001071804] | 90.3 |
| CN(CC(=O)Nc1cccc(F)c1)C(=O)c1ccc(-c2ccc(Cl)cc2)o1 [MLS001078811] | 105 |
| O=C(Nc1ncccc1O)c1ccc(S(=O)(=O)Nc2ccccc2)cc1 [MLS001099437] | 94.2 |
| Cc1ccc(S(=O)(=O)n2nccc2-c2c(-c3ccc(Cl)cc3)noc2C)cc1 [MLS001111122] | 101 |
| CCCCN(C(=O)c1cccc(S(=O)(=O)N(C)c2ccc(C)cc2)c1)c1c(N)n(CCCC)c(=O)[nH]c1=O [MLS001128188] | 91.7 |
| Cc1ccc(-c2c(C(=O)N/N=C/c3cccc(Cl)c3)nnn2-c2nonc2N)cc1 [MLS001139410] | 92.2 |

| SMILES | viability at 3 µM [%] |
| --- | --- |
| COc1cccc(NC(=O)CN(C)C(=O)c2oc3c(ccc4ccccc43)c2C)c1 [MLS001142056] | 101 |
| Nc1nonc1-n1nnc(C(=O)N/N=C/c2ccc(Br)cc2)c1-c1ccc2c(c1)OCO2 [MLS001142619] | 89.5 |
| Cc1ccc(/C=N/NC(=O)c2nnn(-c3nonc3N)c2-c2ccc3c(c2)OCO3)s1 [MLS001142659] | 90.4 |
| Nc1nonc1-n1nnc(C(=O)N/N=C/c2ccc(Cl)cc2)c1-c1ccc2c(c1)OCO2 [MLS001142698] | 104 |
| CCOc1cc(C(=O)N2CCC(CC3CC(c4ccc(Cl)cc4)=NO3)(C(=O)NCC3CCCCC3)CC2)cc(OCC)c1OCC (stereo not shown) [MLS001143937] | 93.2 |
| COc1ccc(NC(=O)C(c2ccc(Cl)cc2)C(C)C)cn1 (stereo not shown) [MLS001149289] | 88.5 |
| Cc1cc(OC(C)C(=O)NCCc2c[nH]c3ccccc23)c2c(C)cc(=O)oc2c1 (stereo not shown) [MLS001158613] | 92.7 |
| Cc1ccnc(NC(=O)c2cccc(S(=O)(=O)N3CCCc4ccccc43)c2)c1 [MLS001159724] | 89.6 |
| CCCCc1cc(=O)oc2cc(C)cc(OCC(=O)Nc3cccnc3)c12 [MLS001160046] | 96.3 |
| CC(Oc1ccc(F)cc1)C(=O)Nc1cc(C(F)(F)F)ccc1-n1cncn1 (stereo not shown) [MLS001160637] | 101 |
| CC1CC(C)CN(C(=O)c2ccc3ccccc3c2)C1 (stereo not shown) [MLS001161774] | 90.9 |
| CCN(CC)CCOC(=O)c1ccc(N/C=C(/C#N)c2nc(-c3cc4ccccc4oc3=O)cs2)cc1 [MLS001164950] | 105 |
| COc1cnc(-c2ccccn2)nc1N(C)c1ccccc1 [MLS001166302] | 90.7 |
| Cc1nnsc1[S+]([O-])c1ccc(Cl)cc1 (stereo not shown) [MLS001166465] | 96.9 |
| CCOC(=O)C1CCN(Cc2cc(Cl)c3ccccc3c2O)CC1 [MLS001171913] | 87.1 |
| CC(NCc1ccccc1O)C12CC3CC(CC(C3)C1)C2 (stereo not shown) [MLS001173343] | 97.5 |
| OC(c1ccc(Cl)cc1)C(CN1CCOCC1)c1ccccc1 (stereo not shown) [MLS001173582] | 99.6 |
| C=C(C)CSc1nc2sc3c(c2c(=O)n1-c1ccccc1)CCN(C)C3 [MLS001173616] | 98.7 |
| COc1ccc2nc(C)cc(NCc3cccc(C(F)(F)F)c3)c2c1 [MLS001174340] | 95.4 |
| Cc1ccc(Nc2nnc(SCC(=O)c3ccc(O)cc3O)s2)cc1 [MLS001176347] | 99.9 |
| CC(C)c1ccccc1OCC(O)CN(CC(O)COc1cccc2ccccc12)C(C)C (stereo not shown) [MLS001179995] | 100 |
| Oc1ccc(-c2ccccc2)cc1CN1CCCCCC1 [MLS001195126] | 104 |
| COC(=O)C1=CN(Cc2ccc(OC)cc2)C=C(C(=O)OC)C1c1cc(OC)c(OC)c(OC)c1 [MLS001197127] | 105 |
| COc1ccccc1C1CC(c2ccccc2)=NN1C(=O)c1ccccc1 (stereo not shown) [MLS001197331] | 96.5 |
| CCOc1ccc(CCNC(=O)Nc2ccccc2)cc1OCC [MLS001197603] | 99.4 |
